Consider 15 molecules from publication PMC4425855, “Novel pantothenate derivatives for anti-malarial chemotherapy” (Malaria Journal, 2015).

Read-outs that look alike come from different tables or passages of the source. Bounds are passed on as bounds.

For assay [1], the system named is asexual NF54 strain P. falciparum. Nature of the assay: Plasmodium falciparum asexual blood stages proliferation assay with SYBR Green read-out. Particulars: for IC50 / anti-malarial activity (in words): compound alone, 10% human serum; for IC50: NF54 asexual blood stages, 72 hours, relative to DHA control, read-out: Anti-malarial activity IC50; for anti-malarial activity (in words): highest concentration tested 100 μM; for change of anti-malarial potency upon vanin inhibition: combined with 5 μM of vanin inhibitor CXP14.1-060. It counts as cell-based. The procedure: The asexual stages of the NF54 strain P. falciparum were cultured as previously described, utilizing a shaker system with automated media change twice a day, parasites were kept in continuous culture within adapted Erlenmeyer flasks. Erythrocytes were refreshed every two or three days to adjust haematocrit to 5% and parasitaemia to 0.5%. Human erythrocytes (blood type A) were obtained from healthy blood donors, with no history of malaria. Culture media consisted of RPMI 1640 with HEPES [5.94 g/l, hypoxanthine [0.05 g/l], 10% (v/v) pooled human serum (blood type A) obtained similarly to erythrocytes, and 0,2% (w/v) sodium bicarbonate. Temperature was set to 37°C and a low oxygen gas mixture was constantly flushed over the culture maintaining a stable atmosphere of 3% O2, 4% CO2, and 93% N2.
A non-synchronous asexual NF54 strain P. falciparum culture was adjusted to a parasitaemia of 0.5-1% and a haematocrit of 1-5%. The compound dilution curves were prepared in dimethylsulphoxide (DMSO) from 100 mM to 10 μM at half/log step dilutions. The established anti-malarial dihydroartemisinin (DHA) was used as a positive control and diluted in DMSO from 1 mM to 100 nM at half/log step dilutions. The DMSO dilutions were 500-fold diluted in growth medium to yield a final DMSO concentration of 0.2% (v/v), and final compound concentrations from 200 μM to 20 nM (2 μM to 200 pM for DHA). Higher concentrations for the experimental compounds would not have been possible to achieve due to limitations in final DMSO concentration (0.1% v/v). Fifty μl of each compound dilution was combined with 50 μl of parasite culture in a black, clear-bottomed or entirely black 96-well plate. The outermost wells were filled with sterile water to prevent evaporation. DHA at a concentration of 1 μM and 0.1% DMSO (negative control) were used to determine the assay window. The 96-well plates were incubated for 72 hours in a candle jar at 37°C. Read-out was done using the DNA-marker SYBR Green as described previously. All assays were conducted at least in triplicate.
When combining two compounds in the same well the conditions were otherwise similar to the single compound assays, however the final DMSO concentration was 0.2%, which was also adjusted for the positive and negative controls and was not found to cause differences in results obtained with single compounds in assay containing 0.1% DMSO. The pantothenamide phenethyl-Pan was combined with a 10^−7 to 10^−5 M concentration curve of CXP14.1-060; the other pantothenamides were combined only with a 5 μM concentration of the same vanin inhibitor. The pantothenone vanin inhibitor RR8 was additionally combined with 20 μM, 6.3 μM, 2.0 μM, and 0.6 μM of pantothenate to explore potential competition for the same molecular target in P. falciparum. All assays were conducted at least in triplicate.
Statistical analyses were performed using GraphPad Prism 5. This includes producing inhibition curves, normalizing them to percentage of inhibition, calculation of IC50 values, correlation coefficients (Spearman non-parametric correlation), and Schild analyses. The IC50 is the concentration of the compound in question at which the compound reaches 50% inhibition relative to the DHA control curve, and is calculated using the interpolate function in GraphPad Prism 5.

For assay [2], the target named is T1, vanin enzymatic activity in human serum (Homo sapiens, UniProt O95497).
T1 sequence (O95497 22-491): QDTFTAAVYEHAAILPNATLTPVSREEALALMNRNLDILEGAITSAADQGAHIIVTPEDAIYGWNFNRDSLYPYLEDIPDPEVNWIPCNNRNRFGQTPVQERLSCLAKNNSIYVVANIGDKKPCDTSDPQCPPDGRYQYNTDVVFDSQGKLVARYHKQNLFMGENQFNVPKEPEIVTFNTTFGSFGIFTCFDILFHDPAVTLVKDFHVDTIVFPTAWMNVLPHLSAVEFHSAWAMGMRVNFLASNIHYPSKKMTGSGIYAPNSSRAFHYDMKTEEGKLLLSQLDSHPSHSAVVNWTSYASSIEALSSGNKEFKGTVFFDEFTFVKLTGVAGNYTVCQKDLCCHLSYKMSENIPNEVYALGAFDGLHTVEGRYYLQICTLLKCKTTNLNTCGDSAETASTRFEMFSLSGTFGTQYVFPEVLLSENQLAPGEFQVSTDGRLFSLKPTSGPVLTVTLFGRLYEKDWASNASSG
Nature of the assay: Vanin/pantetheinase activity assay with AMC substrate and fluorescence readout. In kind it is biochemical.

The subject of a further assay is P. falciparum. On the set-up: method as in PMID 23405100. Particulars: 'aged' medium; cited from earlier work.
Setting [3] is: Plasmodium falciparum, NF54, 72 h.

In the case of `CC(C)(C)c1ccc(CC(=O)CCNC(=O)[C@H](O)C(C)(C)CO)cc1` [CXP14.1-060], the IC50 (as a rule, the concentration at which inhibition is half-maximal) in assay [1] (setting [3]) was greater than 100 µM. Moreover, the “anti-malarial activity (in words)” value in assay [1] is given as “no anti-malarial activity”. The “potency against human vanins (in words)” value in assay [2] is on record as “nanomolar potency”.

As for `C=CCCC(=O)CCNC(=O)[C@H](O)C(C)(C)CO` [RR2], the half-maximal inhibitory concentration (IC50) in assay [1] (setting [3]) worked out at 2.6 µM.

Regarding `CC(C)(CO)[C@@H](O)C(=O)NCCS(=O)(=O)Nc1ccc(Cl)cc1` [SN 14,622], the half-maximal inhibitory concentration (IC50) in assay [1] (setting [3]) worked out at 7.4 µM. Further, the “anti-malarial activity (in words)” value in assay [1] is “moderate activity”.

As to `CC(C)(CO)[C@@H](O)C(=O)NCCC(=O)NCCc1ccccc1` [Phenethyl-Pan], the IC50 in assay [1] (setting [3]) was no less than 50 µM; in assay [1], 98.2 µM; with P. falciparum, 0.02 µM. Further, in assay [1] (in the presence of 10 μM of vanin inhibitor CXP14.1-060, comparable to DHA), the “efficacy of parasite growth inhibition” value was “full inhibition of parasite growth”.

Consider `CCCCCCCCCNC(=O)CCNC(=O)[C@H](O)C(C)(C)CO` [N9-Pan], for which the half-maximal inhibitory concentration (IC50) in assay [1] (setting [3]) was roughly 15 µM; in assay [1] it was 14.6 µM. Besides, the “change of anti-malarial potency upon vanin inhibition” value in assay [1] is “not increased”.

For `C[C@H]1[C@@H](O)O[C@@H]2O[C@@]3(C)CC[C@H]4[C@H](C)CC[C@@H]1[C@@]24OO3` [DHA, dihydroartemisinin], the “change of anti-malarial potency upon vanin inhibition” value in assay [1] is listed as “did not change”. For the same molecule, the “Anti-malarial IC50 (in words)” value in assay [1] (reference compound) is listed as “low nanomolar range”.

Turning to `CC(C)(CO)[C@@H](O)C(=O)NCCC(=O)CCc1ccccc1` [RR7], the IC50 in assay [1] (setting [3]) amounted to 7.7 µM.

Turning to `CC(C)(CO)[C@@H](O)C(=O)NCCC(=O)c1ccccc1` [SN 12,601], the half-inhibitory concentration (IC50) in assay [1] (setting [3]) stood at 6.1 µM. Moreover, the “anti-malarial activity (in words)” value in assay [1] is recorded as “moderate activity”.

`CC(C)(CO)[C@@H](O)C(=O)NCCC(=O)CCCc1ccccc1` [RR8]: the concentration for half-maximal inhibition (IC50) in assay [1] (setting [3]) came out at 2.2 µM. In addition, the “slope of the line in the Schild Plot” value in assay [1] (RR8 dilution curve combined with 20 μM, 6.3 μM, 2.0 μM and 0.6 μM of pantothenate) amounted to 1.087 ± 0.089. For the same molecule, the “shift of IC50 on addition of pantothenate” value in assay [1] (addition of increasing concentrations of pantothenate) is on record as “increase in the IC50”.

`CCCCCCCNC(=O)CCNC(=O)[C@H](O)C(C)(C)CO` [N7-Pan]: in assay [1] (setting [3]), the IC50 was no less than 50 µM. Moreover, in assay [1], the “change of anti-malarial potency upon vanin inhibition” value was “increased” and the IC50 amounted to 79 µM.

`CC(C)(CO)[C@@H](O)C(=O)NCCS(=O)(=O)Nc1ccccc1` [SN 14,621]: the IC50 in assay [1] (setting [3]) amounted to 33.6 µM. Besides, the “anti-malarial activity (in words)” value in assay [1] is reported as “moderate activity”.

In the case of `CCCCCNC(=O)CCNC(=O)[C@H](O)C(C)(C)CO` [N5-Pan], the half-maximal inhibitory concentration (IC50) in assay [1] (setting [3]) is no less than 50 µM; in assay [1] it was 45.1 µM. Besides, the “change of anti-malarial potency upon vanin inhibition” value in assay [1] is on record as “increased”.

Regarding `CC(C)(CO)[C@@H](O)C(=O)N/C=C/C(=O)O` [CJ-15,801], in assay [1] (setting [3]), the half-inhibitory concentration (IC50) was greater than 100 µM. For the same molecule, the “anti-malarial activity (in words)” value in assay [1] is “poor inhibitor of P. falciparum growth”.

Turning to `CC(C)(CO)[C@@H](O)C(=O)NCCCO` [Pantothenol], the half-maximal inhibitory concentration (IC50) in assay [1] (setting [3]) was greater than 100 µM. In assay [1], the “anti-malarial activity (in words)” value is given as “no anti-malarial activity”.

Take `CC(C)(CO)[C@@H](O)C(=O)NCCC(O)Cc1ccccc1` (stereo partly shown) [CXP14.1-034]: in assay [1] (setting [3]), the concentration for half-maximal inhibition (IC50) came to 24.1 µM.
